US9309198B2, “N-[3-(2-carboxyethyl)phenyl]piperidin-1-ylacetamide derivatives and use thereof as activators of soluble guanylate cyclase” (Bayer Pharma Aktiengesellschaft, priority 2012, dated 2016)
pEC50: −log10 of the molar value. Counter-ions that a name gives are not always drawn.

How the values were obtained:
[1] = target: T1, recombinant guanylate cyclase reporter cell line (sGC, CHO reporter cell) (Rattus norvegicus, UniProt P20595); assay: Effect on a recombinant guanylate cyclase reporter cell line (CHO reporter cell); format: cell-based
T1 construct: expressed in transfected cells; host or cells: CHO reporter cell line
T1 sequence (P20595 1-619): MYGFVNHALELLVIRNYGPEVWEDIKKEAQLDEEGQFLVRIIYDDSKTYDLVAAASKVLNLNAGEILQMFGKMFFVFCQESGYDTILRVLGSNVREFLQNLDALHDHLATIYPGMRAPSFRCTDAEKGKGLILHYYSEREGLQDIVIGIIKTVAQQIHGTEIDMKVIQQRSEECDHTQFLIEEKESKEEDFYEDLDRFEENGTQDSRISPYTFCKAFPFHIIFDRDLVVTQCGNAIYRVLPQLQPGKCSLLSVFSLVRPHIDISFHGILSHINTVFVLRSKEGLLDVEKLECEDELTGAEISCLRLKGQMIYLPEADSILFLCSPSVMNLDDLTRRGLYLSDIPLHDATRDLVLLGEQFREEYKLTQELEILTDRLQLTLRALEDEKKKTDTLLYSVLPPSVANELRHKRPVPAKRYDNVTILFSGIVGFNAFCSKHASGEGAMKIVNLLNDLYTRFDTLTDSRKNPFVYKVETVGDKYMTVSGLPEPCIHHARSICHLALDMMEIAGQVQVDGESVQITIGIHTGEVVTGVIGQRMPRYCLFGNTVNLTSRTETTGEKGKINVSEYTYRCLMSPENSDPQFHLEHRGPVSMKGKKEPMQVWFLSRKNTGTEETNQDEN
T1 sequence (P19686 1-690 partner): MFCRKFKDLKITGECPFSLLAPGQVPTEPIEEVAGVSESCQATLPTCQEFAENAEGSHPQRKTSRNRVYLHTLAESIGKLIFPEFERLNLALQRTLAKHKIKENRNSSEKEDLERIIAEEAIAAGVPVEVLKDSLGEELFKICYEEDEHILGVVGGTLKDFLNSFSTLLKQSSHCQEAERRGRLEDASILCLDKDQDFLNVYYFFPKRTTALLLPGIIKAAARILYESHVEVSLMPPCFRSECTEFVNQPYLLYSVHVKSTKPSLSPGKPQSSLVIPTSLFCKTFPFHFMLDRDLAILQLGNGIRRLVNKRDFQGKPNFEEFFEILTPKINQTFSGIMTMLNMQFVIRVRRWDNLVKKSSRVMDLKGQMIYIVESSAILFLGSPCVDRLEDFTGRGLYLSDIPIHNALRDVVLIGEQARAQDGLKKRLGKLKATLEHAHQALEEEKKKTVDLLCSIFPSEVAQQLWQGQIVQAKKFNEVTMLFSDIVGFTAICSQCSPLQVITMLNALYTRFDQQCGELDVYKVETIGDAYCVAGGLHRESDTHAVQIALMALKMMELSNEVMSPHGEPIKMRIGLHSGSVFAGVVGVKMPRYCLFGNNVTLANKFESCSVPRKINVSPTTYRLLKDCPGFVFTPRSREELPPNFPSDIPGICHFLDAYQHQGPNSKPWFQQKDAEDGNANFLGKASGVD
Method: B-2. Effect on a Recombinant Guanylate Cyclase Reporter Cell Line The cellular activity of the compounds according to the invention is determined using a recombinant guanylate cyclase reporter cell line, as described in F. Wunder et al., Anal. Biochem. 339, 104-112 (2005).

[2] = target: T2, soluble guanylate cyclase (sGC) (Rattus norvegicus, UniProt P20595); assay: Stimulation of sGC enzyme activity (PPi detection, luciferase luminescence); format: biochemical; conditions: for pEC50: read-out: EC50 (half-maximal effective concentration), activating action at the sGC enzyme in vitro
T2 construct: made in house
T2 sequence (P20595 1-619): T1 sequence (P20595 1-619)
T2 sequence (P19686 1-690 partner): T1 sequence (P19686 1-690 partner)
Method: B-3. Stimulation of sGC Enzyme Activity
Soluble guanylate cyclase (sGC) converts on stimulation GTP into cGMP and pyrophosphate (PPi). PPi is detected with the aid of the assay described below. The signal produced in the assay increases as the reaction progresses and serves as a measure of the sGC enzyme activity under the given stimulation.
To carry out the assay, 29 μl of enzyme solution [0-10 nM soluble guanylate cyclase (prepared according to Hönicka et al., J. Mol. Med. 77, 14-23 (1999)) in 50 mM TEA, 2 mM MgCl2, 0.1% BSA (fraction V), 0.005% Brij®, pH 7.5] are initially introduced into a microplate, and 1 μl of the substance to be tested (as a serially diluted solution in DMSO) is added. The mixture is incubated at room temperature for 10 min. Then 20 μl of detection mix [1.2 nM Firefly Luciferase (Photinus pyralis luciferase, Promega), 29 μM dehydroluciferin (prepared according to Bitler & McElroy, Arch. Biochem. Biophys. 72, 358 (1957)), 122 μM luciferin (Promega), 153 μM ATP (Sigma) and 0.4 mM DTT (Sigma) in 50 mM TEA, 2 mM MgCl2, 0.1% BSA (fraction V), 0.005% Brij®, pH 7.5] are added. The enzyme reaction is started by adding 20 μl of substrate solution [1.25 mM guanosine 5′-triphosphate (Sigma) in 50 mM TEA, 2 mM MgCl2, 0.1% BSA (fraction V), 0.005% Brij®, pH 7.5] and measured continuously in a luminometer. The extent of the stimulation by the substance to be tested can be determined relative to the signal of the unstimulated reaction.
The activation of haem-free guanylate cyclase is examined by addition of 25 μM of 1H-1,2,4-oxadiazolo[4,3-a]quinoxalin-1-one (ODQ) to the enzyme solution and subsequent incubation for 30 minutes and compared to the stimulation of the native enzyme.

Structure (SMILES)	MEC (minimum effective concentration), sGC-activating activity in the CHO reporter cell in vitro [1]	MEC (minimum effective concentration), activating action at the sGC enzyme in vitro [2]	pEC50 [2]
O=C(Nc1cc(CC2(C(=O)O)CC2)ccc1F)C(C1CCCC1)N1CCc2ccccc2C1 (racemic) [Example 53, rac-1-(3-{[Cyclopentyl(3,4-dihydroisoquinolin-2(1H)-yl)acetyl]amino}-4-fluorobenzyl)cyclopropanecarboxylic acid trifluoroacetate]	100 nM	160 nM	6.08
CCC1CCN(C(C(=O)Nc2cc(CC3(C(=O)O)CC3)ccc2F)C(C)C(F)(F)F)CC1 (single isomer, unassigned) [Example 8, 1-(3-{[2-(4-ethylpiperidin-1-yl)-4,4,4-trifluoro-3-methylbutanoyl]amino}-4-fluorobenzyl)cyclopropanecarboxylic acid]	0.3 nM	1.2 nM	7.68
CCC1CCN(C(C(=O)Nc2cc(CCC(=O)O)ccc2Cl)C(C)C(F)(F)F)CC1 (single isomer, unassigned) [Example 11, 3-(4-chloro-3-{[2-(4-ethylpiperidin-1-yl)-4,4,4-trifluoro-3-methylbutanoyl]amino}phenyl)propanoic acid]	10 nM	17 nM	6.41
CCC1CCN([C@@H](C(=O)Nc2cc(CC3(C(=O)O)CC3)ccc2F)[C@@H](C)C(F)(F)F)CC1 (single isomer, unassigned) [Example 39]	0.3 nM	1.1 nM	8.10
C[C@H]([C@H](C(=O)Nc1cc(C[C@H](C)C(=O)O)ccc1Cl)N1CCC2(CC1)CC2)C(F)(F)F (single isomer, unassigned) [Example 46]	10 nM	17 nM	6.68
C[C@H](CC(=O)O)c1ccc(Cl)c(NC(=O)[C@@H]([C@@H](C)C(F)(F)F)N2CCC3(CC2)CC3)c1 (single isomer, unassigned) [Example 47]	1 nM	3.9 nM	7.09
CC1CCN([C@@H](C(=O)Nc2cc([C@H](C)CC(=O)O)ccc2Cl)[C@@H](C)C(F)(F)F)CC1 (single isomer, unassigned) [Example 48]	3 nM	1.1 nM	7.48
CC1CCN(C(C(=O)Nc2cc(CC3(C(=O)O)CC3)ccc2F)C(C)C(F)(F)F)CC1 (single isomer, unassigned; (+)) [Example 36, (+)-1-(4-Fluoro-3-{[4,4,4-trifluoro-3-methyl-2-(4-methylpiperidin-1-yl)butanoyl]amino}benzyl)cyclopropanecarboxylic acid]	2.3 nM	3 nM	7.60
C[C@H]([C@H](C(=O)Nc1cc(CCC(=O)O)ccc1F)N1CCC(C2CC2)CC1)C(F)(F)F [Example 18]	30 nM	6.9 nM	6.27
CCC1CCN([C@@H](C(=O)Nc2cc(CC3(C(=O)O)CC3)ccc2Cl)[C@@H](C)C(F)(F)F)CC1 [Example 26, 1-(4-Chloro-3-{[(2R,3R)-2-(4-ethylpiperidin-1-yl)-4,4,4-trifluoro-3-methylbutanoyl]amino}benzyl)cyclopropanecarboxylic acid]	1 nM	0.8 nM	8.00
CC1CCN([C@@H](C(=O)Nc2cc(C[C@H](C)C(=O)O)ccc2Cl)[C@@H](C)C(F)(F)F)CC1 [Example 27]	10 nM	10.5 nM	6.68
CC1CCN([C@@H](C(=O)Nc2cc(C[C@@H](C)C(=O)O)ccc2F)[C@@H](C)C(F)(F)F)CC1 [Example 30]	300 nM		
CC1CCN([C@@H](C(=O)Nc2cc(C[C@@H](C)C(=O)O)ccc2Cl)[C@@H](C)C(F)(F)F)CC1 [Example 31]	100 nM		
CC1CCN([C@@H](C(=O)Nc2cc(C[C@H](C)C(=O)O)ccc2F)[C@@H](C)C(F)(F)F)CC1 [Example 32]	30 nM		
C[C@H](Cc1ccc(F)c(NC(=O)[C@@H]([C@@H](C)C(F)(F)F)N2CCC3(CC2)CC3)c1)C(=O)O [Example 33]	300 nM		
C[C@H]([C@H](C(=O)Nc1cc(C[C@H](C)C(=O)O)ccc1Cl)N1CCC(C(F)(F)F)CC1)C(F)(F)F [Example 34]	10 nM	10.5 nM	7.05
CC1CCN([C@@H](C(=O)Nc2cc(CC3(C(=O)O)CC3)ccc2Cl)[C@@H](C)C(F)(F)F)CC1 [Example 51, 1-(4-Chloro-3-{[(2R,3R)-4,4,4-trifluoro-3-methyl-2-(4-methylpiperidin-1-yl)butanoyl]amino}benzyl)cyclopropanecarboxylic acid]	1 nM	1.2 nM	
